Active and inactive are the calls of the source. The calls are words filed in the database; no cut-off is given here.
Legend:
[1] = target: T1, Protein cereblon/Histone-lysine N-methyltransferase NSD2 (Homo sapiens) (UniProt O96028+Q96SW2); experiment: PROTAC activity at CRBN/NSD2 in human RPMI 8402 cells assessed as induction of NSD2 degradation incubated for 24 hrs by immunoblot analysis; format: cell-based; details: dose 0.001-10 µM
[2] = target: T1, Protein cereblon/Histone-lysine N-methyltransferase NSD2 (Homo sapiens); experiment: PROTAC activity at CRBN/NSD2 in human SEM cells assessed as induction of NSD2 degradation at 0.5 to 2 uM measured after 24 hrs by immunoblot analysis; format: cell-based; details: dose 0.5-2 µM
[3] = target: T1, Protein cereblon/Histone-lysine N-methyltransferase NSD2 (Homo sapiens); experiment: PROTAC activity at CRBN/NSD2 in human RPMI 8402 cells assessed as induction of NSD2 degradation at 2 uM pretreated with thalidomide for 2 hrs followed by compound addition and measured after 6 to 12 hrs by Western blot analysis; format: cell-based; details: time 6-12 hrs
[4] = target: T1, Protein cereblon/Histone-lysine N-methyltransferase NSD2 (Homo sapiens); experiment: PROTAC activity at CRBN/NSD2 in human RPMI 8402 cells assessed as induction of NSD2 degradation at 2 uM pretreated with VL-285 for 2 hrs followed by compound addition and measured after 6 to 12 hrs by Western blot analysis; format: cell-based; details: time 6-12 hrs
[5] = target: T1, Protein cereblon/Histone-lysine N-methyltransferase NSD2 (Homo sapiens); experiment: PROTAC activity at CRBN/NSD2 in human RPMI 8402 cells assessed as induction of NSD2 degradation at 2 uM pretreated with bortezomib for 2 hrs followed by compound addition and measured after 6 to 12 hrs by Western blot analysis; format: cell-based; details: time 6-12 hrs
[6] = target: T1, Protein cereblon/Histone-lysine N-methyltransferase NSD2 (Homo sapiens); experiment: PROTAC activity at CRBN/NSD2 in human SEM cells assessed as induction of NSD2 degradation at 2 uM incubated for 12 hrs by immunoblot analysis; format: cell-based
[7] = target: T1, Protein cereblon/Histone-lysine N-methyltransferase NSD2 (Homo sapiens); experiment: PROTAC activity at CRBN/NSD2 in human RPMI 8402 cells assessed as decrease in NSD2 level at 2 uM measured after 12 hrs by TMT-labeled quantitative proteomics assay; format: cell-based
[8] = target: T2, Protein cereblon/Eukaryotic peptide chain release factor GTP-binding subunit ERF3A (Homo sapiens) (UniProt Q96SW2+P15170); experiment: PROTAC activity at CRBN/GSPT1 in human SEM cells assessed as decrease in GSPT1 level at 2 uM measured upto 8 hrs by immunoblot analysis; format: cell-based
T2 sequence (P15170 whole entry, looked up): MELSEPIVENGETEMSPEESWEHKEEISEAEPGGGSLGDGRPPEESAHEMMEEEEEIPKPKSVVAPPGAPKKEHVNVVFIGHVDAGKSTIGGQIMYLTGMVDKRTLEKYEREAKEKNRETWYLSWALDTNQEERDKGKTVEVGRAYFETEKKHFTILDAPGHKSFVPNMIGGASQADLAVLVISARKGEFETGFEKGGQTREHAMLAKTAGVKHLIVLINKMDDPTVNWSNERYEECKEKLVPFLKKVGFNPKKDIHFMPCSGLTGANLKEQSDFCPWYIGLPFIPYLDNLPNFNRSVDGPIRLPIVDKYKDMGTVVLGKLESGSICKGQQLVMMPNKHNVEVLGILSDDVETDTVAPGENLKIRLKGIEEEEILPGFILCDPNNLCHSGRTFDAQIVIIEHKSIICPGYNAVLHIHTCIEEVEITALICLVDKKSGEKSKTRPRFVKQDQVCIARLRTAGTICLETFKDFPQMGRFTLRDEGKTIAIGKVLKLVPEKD
T2 sequence (Q96SW2 whole entry, looked up): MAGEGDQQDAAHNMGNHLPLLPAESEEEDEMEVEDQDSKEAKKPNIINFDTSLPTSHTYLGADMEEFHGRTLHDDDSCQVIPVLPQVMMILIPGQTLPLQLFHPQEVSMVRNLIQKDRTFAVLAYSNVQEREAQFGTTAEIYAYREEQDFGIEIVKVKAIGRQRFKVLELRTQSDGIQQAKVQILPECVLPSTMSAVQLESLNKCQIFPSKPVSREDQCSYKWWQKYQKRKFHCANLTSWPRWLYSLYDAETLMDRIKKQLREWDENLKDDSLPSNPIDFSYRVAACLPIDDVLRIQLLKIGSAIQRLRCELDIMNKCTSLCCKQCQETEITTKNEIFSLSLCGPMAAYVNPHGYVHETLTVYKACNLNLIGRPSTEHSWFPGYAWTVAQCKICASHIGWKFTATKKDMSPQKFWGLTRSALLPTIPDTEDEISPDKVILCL

[9] = target: T2, Protein cereblon/Eukaryotic peptide chain release factor GTP-binding subunit ERF3A (Homo sapiens); experiment: PROTAC activity at CRBN/GSPT1 in human RPMI 8402 cells assessed as decrease in GSPT1 level at 2 uM measured after 12 hrs by TMT-labeled quantitative proteomics assay; format: cell-based
[10] = target: T1, Protein cereblon/Histone-lysine N-methyltransferase NSD2 (Homo sapiens); experiment: PROTAC activity at CRBN/NSD2 in human SEM cells assessed as downregulation of H3K36Me2 level at 2 uM measured after 8 hrs hrs by immunoblot analysis; format: cell-based
SEM cells [11] = experiment: Cytotoxicity against human SEM cells assessed as inhibition of cell growth at 2 uM measured after 9 days by Celltiter-glo assay; format: functional, cell-based; details: time 9.0 day
RPMI 8402 = experiment: Inhibition of colony formation in human RPMI 8402 cells at 2 uM administered every three days for 30 days by iodonitrotetrazolium chloride staining based microscopy analysis; format: functional, cell-based; details: time 30.0 day
SEM cells [12] = experiment: Downregulation of MS4A1 gene expression in human SEM cells measured after 14 days by RNA sequencing assay; format: functional, cell-based; details: time 14.0 day
SEM cells [13] = experiment: Downregulation of CD9 gene expression in human SEM cells measured after 14 days by RNA sequencing assay; format: functional, cell-based; details: time 14.0 day
[14] = target: T1, Protein cereblon/Histone-lysine N-methyltransferase NSD2 (Homo sapiens); experiment: In vivo PROTAC activity at CRBN/NSD2 in SCID mouse xenografted with human 22Rv1 cells assessed as downregulation of NSD2 level at 60 mg/kg, ip for 5 days by Western blot analysis; format: functional, organism-based; details: CWR22R, time 5.0 day
[15] = target: T1, Protein cereblon/Histone-lysine N-methyltransferase NSD2 (Homo sapiens); experiment: In vivo PROTAC activity at CRBN/NSD2 in SCID mouse xenografted with human 22Rv1 cells assessed as downregulation of NSD2 level at 60 mg/kg, ip for 5 days by immunohistochemical analysis; format: functional, organism-based; details: CWR22R, time 5.0 day

T1 sequence (O96028 whole entry, looked up): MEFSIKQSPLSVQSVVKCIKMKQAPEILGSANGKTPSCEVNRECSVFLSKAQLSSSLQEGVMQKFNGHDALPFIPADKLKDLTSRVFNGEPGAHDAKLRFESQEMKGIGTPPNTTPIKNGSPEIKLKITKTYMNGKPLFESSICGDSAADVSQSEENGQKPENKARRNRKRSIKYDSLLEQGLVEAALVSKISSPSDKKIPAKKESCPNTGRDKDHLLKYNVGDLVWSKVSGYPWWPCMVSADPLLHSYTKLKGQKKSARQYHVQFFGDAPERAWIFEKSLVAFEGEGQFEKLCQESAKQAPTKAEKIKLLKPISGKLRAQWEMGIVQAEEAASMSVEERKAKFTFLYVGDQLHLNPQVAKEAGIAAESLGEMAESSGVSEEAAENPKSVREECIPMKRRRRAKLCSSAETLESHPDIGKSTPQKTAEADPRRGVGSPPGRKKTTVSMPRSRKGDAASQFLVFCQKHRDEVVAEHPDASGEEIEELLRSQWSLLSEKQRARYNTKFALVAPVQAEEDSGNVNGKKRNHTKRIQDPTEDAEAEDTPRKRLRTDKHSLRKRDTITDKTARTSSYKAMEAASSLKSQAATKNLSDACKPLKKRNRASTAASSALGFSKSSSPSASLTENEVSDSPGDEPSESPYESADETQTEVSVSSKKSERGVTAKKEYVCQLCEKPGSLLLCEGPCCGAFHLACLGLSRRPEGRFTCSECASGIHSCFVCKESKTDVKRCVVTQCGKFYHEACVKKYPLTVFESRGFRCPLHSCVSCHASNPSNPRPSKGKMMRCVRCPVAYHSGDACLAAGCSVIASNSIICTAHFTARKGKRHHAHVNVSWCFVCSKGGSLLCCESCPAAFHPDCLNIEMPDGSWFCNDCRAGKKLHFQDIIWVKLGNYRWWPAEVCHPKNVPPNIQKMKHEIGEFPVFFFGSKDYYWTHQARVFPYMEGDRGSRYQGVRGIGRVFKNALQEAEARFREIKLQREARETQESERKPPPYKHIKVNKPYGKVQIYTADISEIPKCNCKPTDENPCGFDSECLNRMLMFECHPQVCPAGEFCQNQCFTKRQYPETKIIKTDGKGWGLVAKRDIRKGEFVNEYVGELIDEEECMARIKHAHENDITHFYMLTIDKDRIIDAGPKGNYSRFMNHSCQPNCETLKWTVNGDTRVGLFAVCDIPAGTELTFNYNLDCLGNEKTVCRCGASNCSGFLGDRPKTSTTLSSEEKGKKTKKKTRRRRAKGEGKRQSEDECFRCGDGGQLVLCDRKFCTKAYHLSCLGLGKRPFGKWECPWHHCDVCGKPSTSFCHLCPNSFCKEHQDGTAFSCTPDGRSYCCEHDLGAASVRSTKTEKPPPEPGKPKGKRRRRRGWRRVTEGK
T1 sequence (Q96SW2 whole entry, looked up): as the sequence (Q96SW2 whole entry, looked up) above

Activity [1]: Dose-Dependent Effect
Activity [2]: Active
Activity [3]: inactive
Activity [4]: Active
Activity [5]: inactive
Activity [6]: Active
Activity [7]: Active
Activity [8]: inactive
Activity [9]: Active
Activity [10]: Active
Activity [14]: Active
Activity [15]: Active
SMILES: O=C1CCC(N2C(=O)c3ccc(N4CCC(NC(=O)c5ccc(NC(=O)c6ccc(CN(C(=O)c7ccc8c(c7)OCC(=O)N8)C7CC7)cc6)cc5)CC4)cc3C2=O)C(=O)N1 (stereo unspecified)
Activity (SEM cells [11]): Active
inhibition (RPMI 8402): Active
Activity (SEM cells [12]): Active
Activity (SEM cells [13]): Active
